The record followed here is ChEMBL document CHEMBL5260810, “Inhibition of bromodomain-containing protein 9 for the prevention of epigenetically-defined drug resistance” (Bioorg Med Chem Lett, 2017).

Each structure is given as a SMILES string.

Chain of Tyrosine-protein kinase Lck (Homo sapiens) (P06239 2-509 limits assumed): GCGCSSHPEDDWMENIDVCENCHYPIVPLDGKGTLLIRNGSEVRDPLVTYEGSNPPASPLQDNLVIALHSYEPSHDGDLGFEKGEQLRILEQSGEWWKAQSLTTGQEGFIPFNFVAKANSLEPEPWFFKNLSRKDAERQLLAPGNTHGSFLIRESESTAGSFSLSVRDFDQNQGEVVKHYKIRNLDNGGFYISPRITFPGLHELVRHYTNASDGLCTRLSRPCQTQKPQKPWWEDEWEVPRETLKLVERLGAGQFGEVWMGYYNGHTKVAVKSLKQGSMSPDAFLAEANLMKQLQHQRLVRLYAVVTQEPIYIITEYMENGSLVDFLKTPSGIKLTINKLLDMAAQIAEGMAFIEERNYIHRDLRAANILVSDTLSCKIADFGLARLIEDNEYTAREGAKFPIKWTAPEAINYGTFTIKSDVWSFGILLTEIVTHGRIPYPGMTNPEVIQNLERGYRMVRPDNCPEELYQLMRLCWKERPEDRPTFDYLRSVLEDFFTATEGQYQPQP

The subject of one experiment is OCI-LY19. Nature of the experiment: Cytotoxicity against human OCILY19 cells measured after 8 days. The format is functional, cell-based. Conditions: OCI-LY19, 192 h.
As usually defined, the IC50 is the concentration that gives 50% inhibition. A lower IC50 goes with inhibition by little substance. In turn, `C/C=C/Cn1cc(-c2ccc(C(=O)N3CCOCC3)cc2)c2cc[nH]c2c1=O` registered a half-inhibitory concentration (IC50) of 20 µM.

In another experiment the test system is LXF-289 cell line. The experiment in a line: Cytotoxicity against human LXF-289 cell line measured after 8 days. The format is functional, cell-based. Conditions: LXF-289, 192 h.
As to `C/C=C/Cn1cc(-c2ccc(C(=O)N3CCOCC3)cc2)c2cc[nH]c2c1=O`, 20 µM corresponded to half-maximal inhibition (IC50).

System in the next experiment: not listed separately
The experiment in a line: Cytotoxicity against human MOLM16 cells measured after 8 days. The format is functional, cell-based, MOLM-16. The following applies: MOLM16, 192 h.
`C/C=C/Cn1cc(-c2ccc(C(=O)N3CCOCC3)cc2)c2cc[nH]c2c1=O` returned an IC50 of 9.59 µM.

For a further experiment, the system named is SW480. Nature of the experiment: Cytotoxicity against human SW480 cells measured after 8 days. The format is functional, cell-based. Conditions: SW480, 192 h.
In turn, `C/C=C/Cn1cc(-c2ccc(C(=O)N3CCOCC3)cc2)c2cc[nH]c2c1=O` registered an IC50 of 20 µM.

The next experiment relates to SU-DHL-1. The experiment in a line: Cytotoxicity against human SU-DHL-1 cells measured after 8 days. The format is functional, cell-based. The following applies: SU-DHL-1, 192 h.
On to `C/C=C/Cn1cc(-c2ccc(C(=O)N3CCOCC3)cc2)c2cc[nH]c2c1=O`, for which the IC50 was 20 µM.

The subject of a further experiment is CW-2. The experiment in a line: Cytotoxicity against human CW-2 cells measured after 8 days. The format is functional, cell-based. The following applies: CW-2, 192 h.
As for `C/C=C/Cn1cc(-c2ccc(C(=O)N3CCOCC3)cc2)c2cc[nH]c2c1=O`, the midpoint of inhibition, the IC50, lay at 20 µM.

Another experiment relates to HCC1806. Nature of the experiment: Cytotoxicity against human HCC1806 cells measured after 8 days. The format is functional, cell-based. The following applies: HCC1806, 192 h.
`C/C=C/Cn1cc(-c2ccc(C(=O)N3CCOCC3)cc2)c2cc[nH]c2c1=O` registered an IC50 of 20 µM.

For another experiment, the target named is Cyclin-dependent kinase 5/CDK5 activator 1 (Homo sapiens) (UniProt Q00535+Q15078). The experiment in a line: Inhibition of CDK5/p25 (unknown origin) at 1 uM relative to control. The format is protein-complex assay.
Chain of Cyclin-dependent kinase 5/CDK5 activator 1 (Homo sapiens) (Q00535 whole entry): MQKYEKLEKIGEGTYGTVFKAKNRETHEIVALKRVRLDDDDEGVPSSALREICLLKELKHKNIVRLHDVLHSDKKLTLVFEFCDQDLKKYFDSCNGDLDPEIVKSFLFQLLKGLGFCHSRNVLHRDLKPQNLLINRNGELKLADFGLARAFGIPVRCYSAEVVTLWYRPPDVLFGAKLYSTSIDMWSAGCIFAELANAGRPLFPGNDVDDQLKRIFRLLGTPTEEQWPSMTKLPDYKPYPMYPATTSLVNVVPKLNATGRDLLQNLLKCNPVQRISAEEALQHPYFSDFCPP
Chain of Cyclin-dependent kinase 5/CDK5 activator 1 (Homo sapiens) (Q15078 99-307 partner limits assumed): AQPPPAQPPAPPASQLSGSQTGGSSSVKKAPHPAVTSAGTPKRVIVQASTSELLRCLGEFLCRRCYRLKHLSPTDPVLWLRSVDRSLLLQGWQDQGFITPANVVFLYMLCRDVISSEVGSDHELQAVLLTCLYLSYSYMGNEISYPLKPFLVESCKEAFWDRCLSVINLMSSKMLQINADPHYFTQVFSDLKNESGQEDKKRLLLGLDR
Conditions: not given
Broadly, the inhibition is the relative decrease from the control value, in per cent. `C/C=C/Cn1cc(-c2ccc(C(=O)N3CCOCC3)cc2)c2cc[nH]c2c1=O`: the inhibition was -1.5%.

For another experiment, the target named is Glycogen synthase kinase-3 beta (Homo sapiens) (UniProt P49841). The experiment in a line: Inhibition of GSK3beta (unknown origin) at 1 uM relative to control.
Chain of Glycogen synthase kinase-3 beta (Homo sapiens) (P49841 whole entry, looked up): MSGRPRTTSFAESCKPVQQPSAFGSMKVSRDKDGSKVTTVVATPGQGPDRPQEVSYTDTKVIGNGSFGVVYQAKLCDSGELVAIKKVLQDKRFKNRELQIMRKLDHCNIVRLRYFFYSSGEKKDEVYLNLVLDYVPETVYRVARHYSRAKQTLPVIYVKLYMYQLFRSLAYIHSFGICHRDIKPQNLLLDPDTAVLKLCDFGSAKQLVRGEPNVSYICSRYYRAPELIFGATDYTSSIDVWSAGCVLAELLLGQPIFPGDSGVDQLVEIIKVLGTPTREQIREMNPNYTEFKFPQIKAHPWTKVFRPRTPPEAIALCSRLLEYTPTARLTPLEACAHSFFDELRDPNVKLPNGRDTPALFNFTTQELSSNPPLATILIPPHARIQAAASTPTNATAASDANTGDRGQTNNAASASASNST
Conditions: not given
On to `C/C=C/Cn1cc(-c2ccc(C(=O)N3CCOCC3)cc2)c2cc[nH]c2c1=O`, for which the inhibition is -2%.

The test system of a further experiment is Caco-2. Nature of the experiment: Cytotoxicity against human Caco-2 cells measured after 8 days. The format is functional, cell-based. Conditions: Caco-2, 192 h.
`C/C=C/Cn1cc(-c2ccc(C(=O)N3CCOCC3)cc2)c2cc[nH]c2c1=O` came in with a concentration for half-maximal inhibition (IC50) of 20 µM. That is a double-digit micromolar value.

Another experiment relates to NCI-H2228. The experiment in a line: Cytotoxicity against human NCI-H2228 cells measured after 8 days. The format is functional, cell-based. The following applies: NCI-H2228, 192 h.
On to `C/C=C/Cn1cc(-c2ccc(C(=O)N3CCOCC3)cc2)c2cc[nH]c2c1=O`, for which the IC50 came to 20 µM.

System in another experiment: not listed separately
The experiment in a line: Cytotoxicity against human HCC1171 cells measured after 8 days. The format is functional, cell-based. The following applies: HCC1171, 192 h.
In turn, `C/C=C/Cn1cc(-c2ccc(C(=O)N3CCOCC3)cc2)c2cc[nH]c2c1=O` yielded an IC50 of 20 µM.

The species entered for the next experiment is Rattus norvegicus. Nature of the experiment: Displacement of [3H]batrachotoxinin from rat brain sodium voltage gated ion channel site 2 at 10 uM after 60 mins by scintillation counting analysis relative to control.
Conditions: not given
(In general: In a radioligand displacement assay an active substance lowers the binding of a labelled ligand.)
`C/C=C/Cn1cc(-c2ccc(C(=O)N3CCOCC3)cc2)c2cc[nH]c2c1=O`: the Activity worked out at 11%.

In the next experiment the test system is CA46. Nature of the experiment: Cytotoxicity against human CA46 cells measured after 8 days. The format is functional, cell-based. Conditions: CA46, 192 h.
Regarding `C/C=C/Cn1cc(-c2ccc(C(=O)N3CCOCC3)cc2)c2cc[nH]c2c1=O`, half-maximal inhibition (IC50) required 20 µM. In other words, the double-digit micromolar range.

The subject of a further experiment is HCC515. Nature of the experiment: Cytotoxicity against human HCC515 cells measured after 8 days. Conditions: HCC515, 192 h. The format is functional, cell-based.
Compound `C/C=C/Cn1cc(-c2ccc(C(=O)N3CCOCC3)cc2)c2cc[nH]c2c1=O` showed an IC50 of 20 µM.

In another experiment the target is T1, ATPase family AAA domain-containing protein 2 (Homo sapiens, UniProt Q6PL18).
T1 sequence (Q6PL18 whole entry): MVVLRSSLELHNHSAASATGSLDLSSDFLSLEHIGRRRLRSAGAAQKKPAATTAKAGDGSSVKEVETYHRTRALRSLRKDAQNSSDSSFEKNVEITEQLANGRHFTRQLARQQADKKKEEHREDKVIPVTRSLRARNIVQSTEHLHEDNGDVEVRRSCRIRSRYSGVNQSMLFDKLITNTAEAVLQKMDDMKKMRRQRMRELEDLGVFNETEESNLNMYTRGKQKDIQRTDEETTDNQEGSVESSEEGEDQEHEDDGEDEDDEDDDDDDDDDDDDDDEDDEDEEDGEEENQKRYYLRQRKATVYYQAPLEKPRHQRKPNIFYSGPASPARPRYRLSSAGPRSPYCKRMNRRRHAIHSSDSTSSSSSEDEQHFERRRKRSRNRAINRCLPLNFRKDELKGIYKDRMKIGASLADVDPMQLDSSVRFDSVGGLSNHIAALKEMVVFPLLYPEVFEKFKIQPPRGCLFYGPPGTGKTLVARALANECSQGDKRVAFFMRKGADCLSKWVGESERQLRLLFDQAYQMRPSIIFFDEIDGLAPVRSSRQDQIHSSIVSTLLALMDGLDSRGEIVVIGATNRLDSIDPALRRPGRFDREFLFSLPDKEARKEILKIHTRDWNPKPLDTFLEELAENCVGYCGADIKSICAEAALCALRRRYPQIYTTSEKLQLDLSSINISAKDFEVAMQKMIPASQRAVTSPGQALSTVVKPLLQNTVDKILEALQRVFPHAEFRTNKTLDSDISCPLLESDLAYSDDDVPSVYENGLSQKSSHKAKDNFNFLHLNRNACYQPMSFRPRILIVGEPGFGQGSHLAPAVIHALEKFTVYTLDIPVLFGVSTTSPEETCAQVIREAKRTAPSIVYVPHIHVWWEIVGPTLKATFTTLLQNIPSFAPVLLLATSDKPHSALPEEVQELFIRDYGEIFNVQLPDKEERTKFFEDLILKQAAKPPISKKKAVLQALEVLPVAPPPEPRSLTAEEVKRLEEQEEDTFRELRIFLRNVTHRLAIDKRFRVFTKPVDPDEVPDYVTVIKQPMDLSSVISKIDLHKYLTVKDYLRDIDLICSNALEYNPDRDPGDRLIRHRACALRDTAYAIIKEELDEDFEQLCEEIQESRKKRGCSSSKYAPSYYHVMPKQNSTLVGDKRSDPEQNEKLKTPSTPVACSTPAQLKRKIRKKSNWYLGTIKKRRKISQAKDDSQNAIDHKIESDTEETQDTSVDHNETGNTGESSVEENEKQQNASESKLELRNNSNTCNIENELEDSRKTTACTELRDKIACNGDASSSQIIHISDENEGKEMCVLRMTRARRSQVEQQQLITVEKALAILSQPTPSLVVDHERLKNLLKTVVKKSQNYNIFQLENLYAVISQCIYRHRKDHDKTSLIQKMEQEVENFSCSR
The experiment in a line: Binding affinity to human partial length ATAD2A (Q981 to R1108 residues) expressed in bacterial expression system by BROMOscan assay.
Conditions: not given
The Kd is the free concentration of one partner at which half of the binding sites on the other are occupied at equilibrium, for simple one-to-one binding. Read a low Kd as higher affinity. On to `C/C=C/Cn1cc(-c2cc(OC)c(C(C)(C)O)cc2OC)c2cc(C)[nH]c2c1=O`, for which the Kd came out at 9.3 µM.

In turn, `C/C=C/Cn1cc(-c2ccc(C(=O)N3CCOCC3)cc2)c2cc[nH]c2c1=O` yielded a Kd greater than 10 µM.

The subject of a further experiment is KP-4. The experiment in a line: Cytotoxicity against human KP-4 cells measured after 8 days. The following applies: KP-4, 192 h. The format is functional, cell-based.
For the compound `C/C=C/Cn1cc(-c2ccc(C(=O)N3CCOCC3)cc2)c2cc[nH]c2c1=O`, the IC50 is 20 µM.

The target of another experiment is Histamine H1 receptor (Homo sapiens) (UniProt P35367). The experiment in a line: Displacement of [3H]pyrilamine from human recombinant histamine H1 receptor at 10 uM after 60 mins by scintillation counting analysis relative to control.
Chain of Histamine H1 receptor (Homo sapiens) (P35367 whole entry): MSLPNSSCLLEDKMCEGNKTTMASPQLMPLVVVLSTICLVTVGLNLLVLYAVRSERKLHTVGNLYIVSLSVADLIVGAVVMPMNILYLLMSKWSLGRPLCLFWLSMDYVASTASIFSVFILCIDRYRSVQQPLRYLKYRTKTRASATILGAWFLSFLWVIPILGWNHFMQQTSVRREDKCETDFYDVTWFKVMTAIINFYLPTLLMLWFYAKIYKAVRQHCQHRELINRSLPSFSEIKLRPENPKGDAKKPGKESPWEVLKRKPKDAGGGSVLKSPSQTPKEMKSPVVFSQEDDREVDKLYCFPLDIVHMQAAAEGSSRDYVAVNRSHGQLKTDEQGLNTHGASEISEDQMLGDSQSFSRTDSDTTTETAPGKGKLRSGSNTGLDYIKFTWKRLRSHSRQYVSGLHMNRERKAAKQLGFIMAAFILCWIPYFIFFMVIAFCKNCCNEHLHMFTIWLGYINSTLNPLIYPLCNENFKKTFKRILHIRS
Conditions: not given
Consider `C/C=C/Cn1cc(-c2ccc(C(=O)N3CCOCC3)cc2)c2cc[nH]c2c1=O`, for which the Activity was 0%.

Another experiment concerns IGROV-1. Nature of the experiment: Cytotoxicity against human IGROV-1 cells measured after 8 days. The format is functional, cell-based. Conditions: IGROV-1, 192 h.
With `C/C=C/Cn1cc(-c2ccc(C(=O)N3CCOCC3)cc2)c2cc[nH]c2c1=O`, it took 20 µM to reach half-maximal inhibition (IC50).

Another experiment addresses Tyrosine-protein kinase Lck (Homo sapiens) (UniProt P06239). Nature of the experiment: Inhibition of LCK (unknown origin) at 1 uM relative to control.
Conditions: not given
With `C/C=C/Cn1cc(-c2ccc(C(=O)N3CCOCC3)cc2)c2cc[nH]c2c1=O`, the inhibition was 6.5%.

System in another experiment: not listed separately
The experiment in a line: Cytotoxicity against human EB1 cells measured after 8 days. The format is functional, cell-based. The following applies: EB1, 192 h.
`C/C=C/Cn1cc(-c2ccc(C(=O)N3CCOCC3)cc2)c2cc[nH]c2c1=O` showed a concentration for half-maximal inhibition (IC50) of 20 µM.

A further experiment has as its system HCC827. The experiment in a line: Cytotoxicity against human HCC827 cells measured after 8 days. The format is functional, cell-based. Conditions: HCC827, 192 h.
The compound `C/C=C/Cn1cc(-c2ccc(C(=O)N3CCOCC3)cc2)c2cc[nH]c2c1=O` came in with an IC50 of 20 µM.

System in another experiment: not listed separately
Nature of the experiment: Cytotoxicity against human NCI-H1869 cells measured after 8 days. The format is functional, cell-based. Conditions: NCI-H1869, 192 h.
`C/C=C/Cn1cc(-c2ccc(C(=O)N3CCOCC3)cc2)c2cc[nH]c2c1=O`: the IC50 was determined as 20 µM.

System in the next experiment: not listed separately
The experiment in a line: Cytotoxicity against human OUMS-23 cells measured after 8 days. The format is functional, cell-based. The following applies: OUMS-23, 192 h.
For `C/C=C/Cn1cc(-c2ccc(C(=O)N3CCOCC3)cc2)c2cc[nH]c2c1=O`, the IC50 amounted to 20 µM. In other words, the double-digit micromolar range.

The target of another experiment is Receptor-interacting serine/threonine-protein kinase 2 (Homo sapiens) (UniProt O43353). Nature of the experiment: Inhibition of RIPK2 (unknown origin) at 1 uM relative to control.
Chain of Receptor-interacting serine/threonine-protein kinase 2 (Homo sapiens) (O43353 whole entry): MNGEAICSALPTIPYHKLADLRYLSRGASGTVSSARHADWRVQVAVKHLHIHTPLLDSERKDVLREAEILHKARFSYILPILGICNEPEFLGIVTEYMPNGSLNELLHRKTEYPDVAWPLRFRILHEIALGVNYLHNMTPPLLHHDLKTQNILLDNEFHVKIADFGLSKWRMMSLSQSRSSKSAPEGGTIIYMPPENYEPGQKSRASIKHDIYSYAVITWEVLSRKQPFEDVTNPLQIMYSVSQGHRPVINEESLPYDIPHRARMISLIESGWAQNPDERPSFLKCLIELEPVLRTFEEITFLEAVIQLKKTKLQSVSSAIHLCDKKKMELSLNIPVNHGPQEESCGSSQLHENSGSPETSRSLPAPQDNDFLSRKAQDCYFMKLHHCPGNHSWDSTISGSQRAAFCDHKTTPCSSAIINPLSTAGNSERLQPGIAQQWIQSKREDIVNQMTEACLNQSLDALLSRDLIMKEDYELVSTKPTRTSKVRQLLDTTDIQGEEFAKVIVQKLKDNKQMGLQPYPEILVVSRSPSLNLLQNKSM
Conditions: not given
With `C/C=C/Cn1cc(-c2ccc(C(=O)N3CCOCC3)cc2)c2cc[nH]c2c1=O`, the inhibition was -4.6%.

The target in the next experiment is Mitogen-activated protein kinase 14 (Homo sapiens) (UniProt Q16539). Nature of the experiment: Inhibition of p38alpha (unknown origin) at 1 uM relative to control.
Chain of Mitogen-activated protein kinase 14 (Homo sapiens) (Q16539 whole entry): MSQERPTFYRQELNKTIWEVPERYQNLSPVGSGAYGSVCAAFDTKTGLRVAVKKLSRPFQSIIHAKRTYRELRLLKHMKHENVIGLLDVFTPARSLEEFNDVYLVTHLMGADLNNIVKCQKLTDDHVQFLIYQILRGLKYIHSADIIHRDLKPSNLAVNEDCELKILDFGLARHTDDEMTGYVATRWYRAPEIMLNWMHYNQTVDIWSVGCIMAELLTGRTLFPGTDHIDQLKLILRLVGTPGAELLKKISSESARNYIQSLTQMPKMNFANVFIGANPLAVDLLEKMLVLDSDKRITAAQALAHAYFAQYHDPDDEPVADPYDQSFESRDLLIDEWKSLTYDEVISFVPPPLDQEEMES
Conditions: not given
`C/C=C/Cn1cc(-c2ccc(C(=O)N3CCOCC3)cc2)c2cc[nH]c2c1=O`: the inhibition came out at 0.9%.
